Experimental data from patent US9238033B2, “Pharmaceutical composition containing KW-6002 and fluoxetine or paroxentine” (Kyowa Hakko Kirin Co., Ltd., priority 2003, dated 2016).
Where a name gives a salt, the structure may show the parent alone.

Columns and labels:
ICR male mice = test: Mouse tail suspension method (animal model of depression); assay type: in vivo; details: for Duration of immobility (sec) Mean value ± Standard error: last 4 min of 6 min test, Not Significant (Student's t test); for Rate of change of duration of immobility to solvent control group (%): solvent control = 100%
Procedure: The test was carried out with reference to the method of Steru et al., [Psychopharmacol., 85, 367-370 (1985)], which is an animal model of depression.
Experiment was conducted using 10 ICR male mice (weighing 20 to 35 g, Nihon SLC Co., Ltd) per one group.
An acrylic or metallic bat was fixed horizontally such that height of about 60 cm from the floor face is provided.
The mouse was suspended at a site of about 2 cm from the tip of the tail, from the bar for a period of 6 minutes. Duration of immobility during the last 4 minutes of 6 minutes test was measured (significance test: Student's t test). For fixing the mouse, an adhesive tape was used.
(§1) The antidepressant drug and Compound (I) were suspended in distilled water for injection (manufactured by Otsuka Pharmaceutical Co., Ltd.) containing 0.5% MC (methyl cellulose), respectively, for use in the test. Time point of administration of the antidepressant drug was predetermined such that the peak of onset of activity by the antidepressant drug overlaps with the peak of onset of activity by Compound (I). According to the predetermined time, the suspension containing the antidepressant drug was orally administered to a group administered the antidepressant drug alone or a group administered the antidepressant drug and Compound (I) in combination (0.1 mL per 10 g of the mouse body weight). Further, the suspension containing Compound (I) was orally administered to the group administered the antidepressant drug and Compound (I) in combination, 1 hour before the test (0.1 mL per 1.0 g of the mouse body weight). A solution without containing a test compound [distilled water for injection (manufactured by Otsuka Pharmaceutical Co., Ltd.) containing 0.5% MC] and the suspension containing Compound (I) were orally administered to a solvent control group and to a group administered Compound (I) alone, 1 hour before the test, respectively (0.1 mL per 10 g of the mouse body weight).
(§2) Effect obtained by combining Compound (I) and the antidepressant drug was evaluated according to the following index.
The duration of Immobility in the solvent control group was assumed to be 100%, and each rate of change (%) of the duration of immobility in the above administration group to the duration of immobility in the solvent control group was calculated, and was compared. The duration of immobility in each administration group, and the rate of change (%) of the duration of immobility are shown in Table 2 and Table 3.

ddY male mice = test: Forced swimming method in mice (animal model of depression); assay type: in vivo; details: for Duration of immobility (sec) Mean value ± Standard error: last 4 min of 6 min test, Not Significant (Dunnett test); for Rate of change of duration of immobility to solvent control group (%): solvent control = 100%
Procedure: The test was carried out with reference to the method of Porsolt et al., [Arch. Int. Pharmacodyn. Ther., 229, 327-336 (1977)], which is an animal model of depression.
Experiment was conducted using 10 ddY male mice (weighing 20 to 35 g, Nihon SLC Co., Ltd) per one group.
An acrylic transparent cylinder having a diameter of 10 cm and a height of 25 cm was filled with water having a temperature of about 24° C. Height from the bottom of the cylinder to the surface of the water was adjusted to be about 9 cm.
The mice were forced to swim individually for a period of 6 minutes, the total duration of immobility during the last 4 minutes of 6 minutes test was measured (significance test: Dunnett test).
as §1, with “10” for “1.0”
as §2
The duration of Immobility in the solvent control group was assumed to be 100%, and each rate of change (%) of the duration of, immobility in the above administration group to the duration of immobility in the solvent control group was calculated, and was compared. The duration of immobility in each administration group, and the rate of change (%) of the duration of immobility are shown in Table 1.

[1] = Table 3, fluoxetine hydrochloride 10.00 mg/kg orally
[2] = Venlafaxine hydrochloride 5.00 mg/kg orally
[3] = Table 2, paroxetine hydrochloride hydrate 2.50 mg/kg orally
[4] = Compound (I) 0.08 mg/kg orally 1 hour before test
[5] = Table 2, Compound (I) 0.04 mg/kg orally 1 hour before test
[6] = Table 3, Compound (I) 0.04 mg/kg orally 1 hour before test

## CNCCC(Oc1ccc(C(F)(F)F)cc1)c1ccccc1 (stereo not drawn) [Fluoxetine hydrochloride]
ICR male mice; [1]
  Duration of immobility (sec) Mean value ± Standard error: 85.7 ± 18.9 s
  Rate of change of duration of immobility to solvent control group (%): −16%

## COc1ccc(C(CN(C)C)C2(O)CCCCC2)cc1 (stereo not drawn) [Venlafaxine hydrochloride]
ddY male mice; [2]
  Duration of immobility (sec) Mean value ± Standard error: 173.1 ± 20.7 s
  Rate of change of duration of immobility to solvent control group (%): −12%

## Fc1ccc([C@@H]2CCNC[C@H]2COc2ccc3c(c2)OCO3)cc1 [Paroxetine hydrochloride hydrate]
ICR male mice; [3]
  Duration of immobility (sec) Mean value ± Standard error: 79.6 ± 16.6 s
  Rate of change of duration of immobility to solvent control group (%): −2%

## CCn1c(=O)c2c(nc(/C=C/c3ccc(OC)c(OC)c3)n2C)n(CC)c1=O [Compound (I), (E)-8-(3,4-dimethoxystyryl)-1,3-diethyl-7-methyl-3,7-dihydro-1H-purine-2,6-dione]
ddY male mice; [4]
  Duration of immobility (sec) Mean value ± Standard error: 155.6 ± 13.3 s
  Rate of change of duration of immobility to solvent control group (%): −21%
ICR male mice; [5]
  Duration of immobility (sec) Mean value ± Standard error: 70.1 ± 19.1 s
  Rate of change of duration of immobility to solvent control group (%): −14%
ICR male mice; [6]
  Duration of immobility (sec) Mean value ± Standard error: 87.9 ± 14.9 s
  Rate of change of duration of immobility to solvent control group (%): −26%
